Here are results for 1 molecule from publication PMC12220852, “An adamantane‐based ligand as a novel chemical tool for thermosensory TRPM8 channel therapeutic modulation” (The Febs Journal, 2025).

For experiment [1], the target named is T1, recombinant human TRPM8 stably expressed in HEK293 cells (hTRPM8) (Homo sapiens, UniProt Q7Z2W7).
T1 construct: expressed in transfected cells
Briefly: Ca2+ microfluorimetry screen for agonist/antagonist activity in hTRPM8-HEK293 cells. Format: cell-based. Conditions: agonists vs WS-12, antagonists vs WS-12 response, read-out: Efficacy (percentage of maximal activation or blockade).

Experiment [2] concerns AITC‐induced excitability in murine nociceptors. Briefly: Multielectrode array (MEA): AITC-induced firing in nociceptors. Format: cell-based. Conditions: 5 μM compound, 100 μM AITC, P2/P1. How it is done:
Additionally, we investigated the effect of compound 23 on capsaicin and AITC‐induced excitability in murine nociceptors. Employing an IC50 value of 1 μM for TRPV1 and 5 μM for TRPA1 of firing inhibition by compound 23 (Fig. 4), we interrogated its ability to modulate neuronal excitability. As for TRPM8, our experimental design involved a protocol of dual agonist pulses interspersed with a washing pulse to minimize agonist‐induced channel desensitization. Compound 23 was administered 1 min prior to and during the second agonist pulse.
Primary cultures of neonatal dorsal root ganglia were used for multielectrode array (MEA) and patch‐clamp experiments following established methodologies previously described. Neonatal dorsal root ganglia (DRGs) were obtained from Wistar rats (3–5 days old) and were isolated and digested with 0.25% (w/v) collagenase (type IA) in DMEM GlutaMax with 1% (v/v) penicillin/streptomycin (P/S) solution for 1 h at 37 °C in a 5% CO2 Thermo Scientific incubator. Following digestion, DRGs were mechanically dissociated and passed through a 100 μm cell strainer to obtain single‐cell suspensions. Suspensions were washed with DMEM GlutaMax with 10% (v/v) fetal bovine serum (FBS) and 1% (v/v) penicillin/streptomycin (P/S). Cells were then seeded in microelectrode array chambers coated with poly‐L‐lysine (8.3 μg·mL^−1) and laminin (5 μg·mL^−1). […]

T1 sequence (Q7Z2W7 whole entry): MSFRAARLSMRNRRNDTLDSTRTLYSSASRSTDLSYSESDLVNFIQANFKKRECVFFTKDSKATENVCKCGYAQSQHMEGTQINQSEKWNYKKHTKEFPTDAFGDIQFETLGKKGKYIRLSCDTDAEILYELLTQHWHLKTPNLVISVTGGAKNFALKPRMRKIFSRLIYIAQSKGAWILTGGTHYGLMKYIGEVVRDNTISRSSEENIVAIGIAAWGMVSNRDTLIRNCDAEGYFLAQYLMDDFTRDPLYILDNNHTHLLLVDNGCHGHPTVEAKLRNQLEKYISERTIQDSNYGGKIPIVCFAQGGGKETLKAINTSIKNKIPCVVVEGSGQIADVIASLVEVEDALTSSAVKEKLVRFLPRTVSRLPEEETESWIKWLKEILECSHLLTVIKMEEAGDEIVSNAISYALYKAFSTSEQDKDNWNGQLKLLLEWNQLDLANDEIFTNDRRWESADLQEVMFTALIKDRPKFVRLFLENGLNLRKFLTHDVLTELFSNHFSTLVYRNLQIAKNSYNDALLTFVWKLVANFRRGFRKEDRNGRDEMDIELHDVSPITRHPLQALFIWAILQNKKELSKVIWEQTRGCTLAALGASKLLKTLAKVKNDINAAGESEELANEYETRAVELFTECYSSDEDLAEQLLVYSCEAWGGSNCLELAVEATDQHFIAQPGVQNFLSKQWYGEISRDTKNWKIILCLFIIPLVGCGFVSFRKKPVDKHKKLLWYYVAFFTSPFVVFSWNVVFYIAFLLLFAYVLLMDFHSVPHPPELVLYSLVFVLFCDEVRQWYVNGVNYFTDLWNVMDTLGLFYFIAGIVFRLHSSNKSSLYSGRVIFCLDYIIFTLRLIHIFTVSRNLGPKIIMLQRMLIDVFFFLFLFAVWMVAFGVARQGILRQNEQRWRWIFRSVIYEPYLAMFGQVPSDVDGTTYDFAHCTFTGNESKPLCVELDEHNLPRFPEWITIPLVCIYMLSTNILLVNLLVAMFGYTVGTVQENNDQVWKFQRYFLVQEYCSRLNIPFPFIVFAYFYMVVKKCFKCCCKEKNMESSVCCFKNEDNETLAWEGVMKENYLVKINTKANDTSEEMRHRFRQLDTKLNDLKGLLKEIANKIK

`O=C(COC(=O)c1ccccc1-c1ccccc1)NC12CC3CC(CC(C3)C1)C2` [Compound 23, 2‐((3S,5S,7S)‐adamantan‐1‐ylamino)‐2‐oxoethyl [1,1′‐biphenyl]‐2‐carboxylate]: the Emax in experiment [1] is 100%. The “attenuation of AITC‐induced firing” value in experiment [2] came out at 40%.
